# Measurements published in article PMC9916685, “Discovery of Small Molecule COX-1 and Akt Inhibitors as Anti-NSCLC Agents Endowed with Anti-Inflammatory Action” (International Journal of Molecular Sciences, 2023).
# How the values were obtained:
# [1] = test system: COX-1; conditions: cited from earlier work
# [2] = test system: COX-2; conditions: cited from earlier work
# [3] = test system: A549 human lung adenocarcinoma cells; assay: MTT cytotoxicity assay, A549 cells; type: cell-based; conditions: Homo sapiens, mean ± SD
# Description: (§1) A549 human lung adenocarcinoma and L929 mouse fibroblast cell lines were obtained from American Type Culture Collection (ATCC) (Manassas, VA, USA). Both cell lines were cultured, and drug treatments were carried out as previously reported.
# (§2) MTT assay was conducted as previously explained in the literature with small modifications. Cisplatin was used as a positive control. The assay was performed in triplicate. IC50 data (µM) were expressed as mean ± SD.
# [4] = test system: L929 mouse fibroblast (normal) cells; assay: MTT cytotoxicity assay, L929 normal cells; type: cell-based; conditions: for IC50: MTT, L929 mouse fibroblast cells, mean ± SD; for cytotoxicity against L929 cells at effective concentrations: in words, at concentrations effective for COX-1 inhibition
# Description: as §1, §2
# [5] = LPS-induced sepsis model, serum ALT and AST levels; type: in vivo, Sprague Dawley rats; conditions: rat serum, 24 h after LPS; 3b, 4a 10 mg/kg/day, indomethacin 5 mg/kg by gastric intubation six days; mean ± SD, n = 8
# Description: (§3) Male albino Sprague Dawley rats (~250–300 g) were procured from the Medical and Surgical Experimental Animals Application and Research Center of Eskisehir Osmangazi University (ESOGU). In the animal house, the rats were housed in stainless steel cages under standard atmospheric conditions at 22 ± 1 °C and exposed to 12 h/12 h light/dark cycle. Food and water were given ad libitum. All experiments and protocols reported in this work were approved by ESOGU Animal Experiments Local Ethics Committee (10 December 2018/700).
# (§4) Compounds 3b, 4a, and indomethacin (Sigma-Aldrich, St. Louis, MO, USA) were dissolved in 5% dimethyl sulfoxide (DMSO) and then diluted. The final DMSO concentration in the solution was 0.5% (v/v). The agents were administered by gastric intubation.
# (§5) Rats were randomly divided into five groups (n = 8) as control group, LPS group, test groups (3b and 4a), and reference group. 0.5% DMSO was used as control solution for LPS group. Indomethacin (5 mg/kg) was used as a reference agent. Control group (Group I) was fed with basal rat chow throughout the experimental period. LPS group (Group II) was fed with basal rat chow for six days (only 0.5% DMSO was administered by gastric intubation) and LPS was injected intraperitoneally in 0.9% sodium chloride solution only once on the 7th day. Groups III, IV, and V were fed with basal rat chow and compound 3b (10 mg/kg/day), compound 4a (10 mg/kg/day), and indomethacin were administered, respectively, by gastric intubation for six days. Then, LPS was injected intraperitoneally in 0.9% sodium chloride solution only once on the 7th day for three groups as well. After 24 h of LPS injection, all rats were sacrificed by ketamine (80 mg/kg) ve xylazine (10 mg/kg) anesthesia via intraperitoneal route. Blood samples were collected via cardiac puncture in tubes containing gel for obtaining serum.
# Serum ALT and AST levels were determined using enzyme-based Roche Diagnostics kit in Roche Modular Systems analyzer by photometric assay based on the manufacturer’s instructions. The other serum samples were stored at −80 °C (Thermo Electron, Waltham, MA, USA) for subsequent analyses of MPO and NO levels.
# [6] = test system: A549 cells; assay: Annexin V-FITC/PI flow cytometry-based apoptosis detection; conditions: A549, 24 h; for percentage of A549 cells undergoing apoptosis (early and late): sum of early and late
# [7] = test system: nitric oxide (NO); assay: LPS-induced sepsis model, serum NO levels; type: in vivo, Sprague Dawley rats; conditions: rat serum, 24 h after LPS; 3b, 4a 10 mg/kg/day, indomethacin 5 mg/kg by gastric intubation six days; n = 8
# Description: as §3, §4, §5
# Nitrate and nitrite, which represent the best index of the entire NO production, are the stable end products of NO in vivo. Nitrate in serum was assayed by a slight modification of the Cd-reduction method as reported by Cortas and Wakid.
# [8] = target: T1, COX-1 (Ovis aries, UniProt P05979); assay: COX (ovine) colorimetric inhibitor screening assay, COX-1; type: biochemical; conditions: for IC50: ovine COX-1, colorimetric, triplicate, mean ± SD; for SI (IC50 for COX-1/IC50 for COX-2): selectivity index
# T1 construct: purchased Cayman
# T1 sequence (P05979 25-600): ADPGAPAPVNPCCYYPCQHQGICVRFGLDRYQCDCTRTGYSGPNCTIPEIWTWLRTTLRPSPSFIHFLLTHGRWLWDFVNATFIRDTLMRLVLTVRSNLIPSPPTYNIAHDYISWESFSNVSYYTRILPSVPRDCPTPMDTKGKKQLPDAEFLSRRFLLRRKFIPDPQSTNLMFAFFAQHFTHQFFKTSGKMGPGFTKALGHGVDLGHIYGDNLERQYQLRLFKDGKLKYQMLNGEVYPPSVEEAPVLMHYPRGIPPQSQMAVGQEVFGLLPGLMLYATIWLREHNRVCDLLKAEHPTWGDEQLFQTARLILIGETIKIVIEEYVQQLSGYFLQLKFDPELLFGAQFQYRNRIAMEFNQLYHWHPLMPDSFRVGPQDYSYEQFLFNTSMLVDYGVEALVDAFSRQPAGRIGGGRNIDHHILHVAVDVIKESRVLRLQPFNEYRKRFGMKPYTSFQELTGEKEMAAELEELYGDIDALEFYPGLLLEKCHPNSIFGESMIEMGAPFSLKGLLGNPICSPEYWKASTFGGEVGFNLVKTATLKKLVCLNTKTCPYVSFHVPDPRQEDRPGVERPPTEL
# Description: (§6) COX (ovine) Colorimetric Inhibitor Screening Assay (Cayman, Ann Arbor, MI, USA) was conducted to detect the peroxidase component of COX-1 and COX-2 according to the manufacturer’s instructions. The assay was performed in triplicate. Half maximal inhibitory concentration (IC50) data (µM) were expressed as mean ± SD.
# [9] = test system: myeloperoxidase (MPO); assay: LPS-induced sepsis model, serum MPO levels; type: in vivo, Sprague Dawley rats; conditions: for change of MPO activity compared to the LPS group: in words, LPS-induced sepsis, rats; for MPO (U/L): rat serum, 24 h after LPS 1 mg/kg i.p., 3b, 4a 10 mg/kg/day, indomethacin 5 mg/kg by gastric intubation for six days, mean ± SD, n = 8
# Description: as §3, §4, §5
# Suzuki’s assay was performed with slight modifications. The rate of MPO-catalyzed oxidation of 3,3′,5,5′-tetramethylbenzidine (TMB) was followed by recording the absorbance increase at 655 nm for 5 min. Taking into account the linear phase of the reaction, the absorbance change was measured per minute. The enzyme activity was expressed as the amount of the enzyme producing one absorbance change per minute under assay conditions.
# [10] = target: T2, COX-2 (Ovis aries, UniProt P79208); assay: COX (ovine) colorimetric inhibitor screening assay, COX-2; type: biochemical; conditions: ovine COX-2, colorimetric, triplicate, mean ± SD
# T2 construct: purchased Cayman
# T2 sequence (P79208 17-603): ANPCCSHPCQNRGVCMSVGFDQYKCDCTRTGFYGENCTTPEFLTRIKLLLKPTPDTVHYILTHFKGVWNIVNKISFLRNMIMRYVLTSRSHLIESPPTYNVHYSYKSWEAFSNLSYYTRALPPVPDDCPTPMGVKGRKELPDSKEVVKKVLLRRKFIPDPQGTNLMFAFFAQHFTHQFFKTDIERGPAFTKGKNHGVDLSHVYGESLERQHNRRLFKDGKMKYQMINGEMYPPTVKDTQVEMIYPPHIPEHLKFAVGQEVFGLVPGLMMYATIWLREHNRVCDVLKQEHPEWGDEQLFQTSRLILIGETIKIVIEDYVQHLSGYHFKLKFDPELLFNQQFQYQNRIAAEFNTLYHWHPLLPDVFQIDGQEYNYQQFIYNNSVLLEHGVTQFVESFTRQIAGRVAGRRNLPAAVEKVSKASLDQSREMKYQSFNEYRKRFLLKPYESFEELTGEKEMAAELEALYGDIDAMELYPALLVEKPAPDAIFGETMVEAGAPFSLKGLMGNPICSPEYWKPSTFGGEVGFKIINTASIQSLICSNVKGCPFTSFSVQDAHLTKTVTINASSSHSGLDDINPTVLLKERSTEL
# Description: as §6
# [11] = test system: Akt; assay: Akt Colorimetric In-Cell ELISA in A549 cells; type: cell-based, human; conditions: 24 h, mean ± SD, read-out: Akt inhibition IC50 in A549 cells
# Description: The assay was performed in triplicate. IC50 data (µM) were expressed as mean ± SD.
# [12] = test system: Akt; parameters: method as in doi:10.2174/1570180817999200618163507; conditions: 5RP7 H-ras oncogene transformed rat embryonic fibroblast cell line; cited from earlier work
compound,measurement,setting,value
N#Cc1ccc(C(=O)C=Cc2c[nH]c3ccc(Br)cc23)cc1 [3-(5-bromo-1H-indol-3-yl)-1-(4-cyanophenyl)prop-2-en-1-one],COX-1 IC50,[1],8.10 µg/mL
same,COX-2 IC50,[2],9.50 µg/mL
O=[N+]([O-])c1ccc(Oc2ccc(C=NNC(=S)Nc3ccc(S(=O)(=O)N4CCCCC4)cc3)cc2)cc1 [4-[4-(piperidin-1-ylsulfonyl)phenyl]-1-[4-(4-nitrophenoxy)benzylidene]thiosemicarbazide],IC50,[1],13.4 µM
same,IC50,[2],12.6 µM
"O=C(Cc1c[nH]c2ccccc12)NN=Cc1ccc(N2CCOCC2)cc1 [Compound 3b, 2-(1H-Indol-3-yl)-N′-(4-morpholinobenzylidene)acetohydrazide]",IC50,[3],89.7 ± 10.8 µM
same,IC50,[4],177 ± 5.77 µM
same,cytotoxicity against L929 cells at effective concentrations,[4],did not show cytotoxicity
same,melting point,,306 to 307 °C
same,ALT (U/L),[5],50.25 ± 21.86 U/L
same,AST (U/L),[5],114.90 ± 22.04 U/L
same,Early Apoptosis (%),[6]; compound at IC50,6.84%
same,Late Apoptosis (%),[6]; compound at IC50,6.01%
same,Necrosis (%),[6]; compound at IC50,0.48%
same,Early Apoptosis (%),[6]; compound at IC50/2,5.89%
same,Late Apoptosis (%),[6]; compound at IC50/2,5.78%
same,Necrosis (%),[6]; compound at IC50/2,0.36%
same,percentage of A549 cells undergoing apoptosis (early and late),[6]; compound at IC50/2,11.67%
same,percentage of A549 cells undergoing apoptosis (early and late),[6]; compound at IC50,12.85%
same,"NO level, 25% Percentile",[7],0.316 µmol/L
same,"NO level, 75% Percentile",[7],2.772 µmol/L
same,"NO level, Median",[7],0.667 µmol/L
same,IC50,[8],8.9 ± 0.14 µM
same,SI (IC50 for COX-1/IC50 for COX-2),[8],0.13
same,change of MPO activity compared to the LPS group,[9],slightly decreased
same,MPO (U/L),[9],1.50 ± 0.81 U/L
same,IC50,[10],71 ± 1.41 µM
same,IC50,[11],32.5 ± 4.95 µM
"O=C(Cc1c[nH]c2ccccc12)NNC(=S)Nc1ccc(Br)cc1 [Compound 4a, 4-(4-Bromophenyl)-1-[2-(1H-indol-3-yl)acetyl]thiosemicarbazide]",IC50,[3],179 ± 77.6 µM
same,IC50,[4],84 ± 19.7 µM
same,cytotoxicity against L929 cells at effective concentrations,[4],did not show cytotoxicity
same,melting point,,187 to 189 °C
same,ALT (U/L),[5],48.29 ± 26.88 U/L
same,AST (U/L),[5],132.30 ± 37.06 U/L
same,Early Apoptosis (%),[6]; compound at IC50/2,7.07%
same,Late Apoptosis (%),[6]; compound at IC50/2,6.62%
same,Necrosis (%),[6]; compound at IC50/2,0.60%
same,Early Apoptosis (%),[6]; compound at IC50/4,7.34%
same,Late Apoptosis (%),[6]; compound at IC50/4,5.19%
same,Necrosis (%),[6]; compound at IC50/4,0.37%
same,"NO level, 25% Percentile",[7],1.369 µmol/L
same,"NO level, 75% Percentile",[7],4.0 µmol/L
same,"NO level, Median",[7],2.509 µmol/L
same,IC50,[8],10 ± 0.13 µM
same,SI (IC50 for COX-1/IC50 for COX-2),[8],0.13
same,change of MPO activity compared to the LPS group,[9],significantly decreased
same,MPO (U/L),[9],0.84 ± 0.26 U/L
same,IC50,[10],76.5 ± 6.36 µM
same,IC50,[11],45.3 ± 6.51 µM
COc1ccc(-c2ccnc(SCC(=O)NN=Cc3ccccc3)n2)cc1 [N′-benzylidene-2-[(4-(4-methoxyphenyl)pyrimidin-2-yl)thio]acetohydrazide],inhibition of Akt IC50,[12],0.50 µg/mL
